Reference: ChEMBL document CHEMBL4354827, “Discovery of Novel, Potent, Brain-Permeable, and Orally Efficacious Positive Allosteric Modulator of α7 Nicotinic Acetylcholine Receptor [4-(5-(4-Chlorophenyl)-4-methyl-2-propionylthiophen-3-yl)benzenesulfonamide]: Structure-Activity Relationship and Preclinical Characterization” (J Med Chem, 2020)

What was measured:
[1] = Drug concentration in Wistar rat plasma at 10 mg/kg, po after 4 hrs by LC-MS/MS analysis; format: ADME, organism-based
[2] = Tmax in BALB/c mouse at 1 mg/kg, iv after 0.083 to 144 hrs by LC-MS/MS analysis; format: ADME, organism-based; settings: in vivo
Rattus norvegicus [3] = test: Memory enhancement effect in time-delay induced Wistar rat model of amnesia assessed as exploration time for novel object at 1 mg/kg, po administered as single dose after acquisition trial by novel object recognition test (reference value: 12.81 sec); format: functional
[4] = Protein binding in rat plasma at 5 uM incubated for 16 hrs under shaking condition by LC/MS/MS based rapid equilibrium dialysis method; format: ADME, cell-free; settings: read-out: PPB (converted)
[5] = Brain to plasma permeability coefficient, Kp in Wistar rat at 10 mg/kg, po after 4 hrs by LC-MS/MS analysis; format: ADME, organism-based
[6] = Brain to plasma permeability coefficient, Kp in Wistar rat at 10 mg/kg, po after 48 hrs by LC-MS/MS analysis; format: ADME, organism-based
Rattus norvegicus [7] = test: Memory enhancement effect in scopolamine-induced Wistar rat model of amnesia assessed as exploration time for object1 in acquisition trial at 0.15 mg/kg, po administered as single dose and measured on day 8 by novel object recognition test (reference value: 16.11 sec); format: functional
[8] = Protein binding in human plasma assessed as unbound fraction at 5 uM incubated for 16 hrs under shaking condition by LC/MS/MS based rapid equilibrium dialysis method; format: ADME, cell-free
[9] = Cmax in BALB/c mouse at 10 mg/kg, po after 0.25 to 144 hrs by LC-MS/MS analysis; format: ADME, organism-based; design: dose 10 mg/kg, route oral; settings: in vivo
[10] = Volume of distribution at steady state in Beagle dog at 1 mg/kg, iv after 0.083 to 144 hrs by LC-MS/MS analysis; format: ADME, organism-based, Canis lupus familiaris; settings: in vivo, read-out: Vdss
[11] = Drug concentration in Wistar rat brain at 10 mg/kg, po after 8 hrs by LC-MS/MS analysis; format: ADME, organism-based; settings: read-out: Drug uptake
Rattus norvegicus [12] = test: Memory enhancement effect in time-delay induced Wistar rat model of amnesia assessed as increase in exploration time for novel object in retention trial at 3 mg/kg, po administered as single dose and measured on day 9 by novel object recognition test (reference value: 12.06 sec); format: functional
[13] = Cmax in Wistar rat at 1 mg/kg, iv after 0.083 to 144 hrs by LC-MS/MS analysis; format: ADME, organism-based; design: dose 1 mg/kg, route intravenous; settings: in vivo
[14] = Drug concentration in Wistar rat brain at 10 mg/kg, po after 4 hrs by LC-MS/MS analysis; format: ADME, organism-based; settings: read-out: Drug uptake
[15] = Drug metabolism in human pooled liver microsomes assessed as metabolic rate at 1 uM preincubated for 5 mins followed by NADPH addition after 30 mins by LC-MS/MS analysis; format: ADME, Microsome; settings: 0.5 h
Rattus norvegicus [16] = test: Memory enhancement effect in scopolamine-induced Wistar rat model of amnesia assessed as increase in exploration time for novel object in retention trial at 0.05 mg/kg, po administered as single dose and measured on day 9 by novel object recognition test (reference value: 12.09 sec); format: functional
Rattus norvegicus [17] = test: Memory enhancement effect in scopolamine-induced Wistar rat model of amnesia assessed as increase in discrimination index at 0.05 mg/kg, po for 7 days and measured on day 8 by novel object recognition test (reference value: 0.21); format: functional
[18] = AUClast in Beagle dog at 10 mg/kg, po after 0.25 to 144 hrs by LC-MS/MS analysis; format: ADME, organism-based, Canis lupus familiaris; design: time upper 144 hr, dose 10 mg/kg, time lower 0.25 hr, route oral; settings: in vivo
Rattus norvegicus [19] = test: Memory enhancement effect in scopolamine-induced Wistar rat model of amnesia assessed as exploration time for object1 in acquisition trial at 0.5 mg/kg, po administered as single dose and measured on day 8 by novel object recognition test (reference value: 16.11 sec); format: functional
[20] = Ratio of Cmax in brain to plasma in Wistar rat at 10 mg/kg, po after 144 hrs by LC-MS/MS analysis; format: ADME, organism-based
[21] = Half life in Beagle dog at 10 mg/kg, po after 0.25 to 144 hrs by LC-MS/MS analysis; format: ADME, organism-based, Canis lupus familiaris; settings: in vivo
Rattus norvegicus [22] = test: Improvement in social recognition scopolamine-induced Sprague-Dawley rat model of amnesia assessed as reduction in recognition index at 0.05 mg/kg, po for 7 days measured after 24 hrs (reference value: 0.93); format: functional
[23] = Metabolic stability in dog liver microsomes assessed as compound remaining at 1 uM preincubated for 5 mins followed by NADPH addition and measured after 30 mins by LC-MS/MS analysis; format: ADME, Canis lupus familiaris, Microsome; settings: read-out: Stability
Rattus norvegicus [24] = test: Memory enhancement effect in scopolamine-induced Wistar rat model of amnesia assessed as exploration time for familiar object in retention trial at 0.15 mg/kg, po for 7 days and measured on day 8 by novel object recognition test (reference value: 8.59 sec); format: functional
[25] = Cmax in Wistar rat brain at 10 mg/kg, po after 1 to 144 hrs by LC-MS/MS analysis; format: ADME, organism-based; design: dose 10 mg/kg, route oral
[26] = Volume of distribution at steady state in BALB/c mouse at 1 mg/kg, iv after 0.083 to 144 hrs by LC-MS/MS analysis; format: ADME, organism-based; settings: in vivo, read-out: Vdss
[27] = Clearance in Beagle dog at 1 mg/kg, iv after 0.083 to 144 hrs by LC-MS/MS analysis; format: ADME, organism-based, Canis lupus familiaris; settings: in vivo
Rattus norvegicus [28] = test: Memory enhancement effect in scopolamine-induced Wistar rat model of amnesia assessed as increase in exploration time for novel object in retention trial at 0.15 mg/kg, po administered as single dose and measured on day 9 by novel object recognition test (reference value: 12.09 sec); format: functional
[29] = Brain to plasma permeability coefficient, Kp in Wistar rat at 10 mg/kg, po after 1 hr by LC-MS/MS analysis; format: ADME, organism-based
[30] = Protein binding in rat plasma assessed as unbound fraction at 5 uM incubated for 16 hrs under shaking condition by LC/MS/MS based rapid equilibrium dialysis method; format: ADME, cell-free
Rattus norvegicus [31] = test: Memory enhancement effect in scopolamine-induced Wistar rat model of amnesia assessed as exploration time for object2 in acquisition trial at 0.05 mg/kg, po administered as single dose and measured on day 8 by novel object recognition test (reference value: 15.63 sec); format: functional
Rattus norvegicus [32] = test: Memory enhancement effect in time-delay induced Wistar rat model of amnesia assessed as exploration time for object2 at 3 mg/kg, po administered as single dose after acquisition trial by novel object recognition test (reference value: 21.07 sec); format: functional
Rattus norvegicus [33] = test: Improvement in social recognition scopolamine-induced Sprague-Dawley rat model of amnesia assessed as reduction in recognition index at 0.15 mg/kg, po for 7 days measured after 24 hrs (reference value: 0.93); format: functional
Rattus norvegicus [34] = test: Memory enhancement effect in time-delay induced Wistar rat model of amnesia assessed as exploration time for object1 at 1 mg/kg, po administered as single dose after acquisition trial by novel object recognition test (reference value: 19.09 sec); format: functional
Rattus norvegicus [35] = test: Memory enhancement effect in time-delay induced Wistar rat model of amnesia assessed as exploration time for novel object at 3 mg/kg, po administered as single dose after acquisition trial by novel object recognition test (reference value: 12.81 sec); format: functional
[36] = Metabolic stability in monkey liver microsomes assessed as compound remaining at 1 uM preincubated for 5 mins followed by NADPH addition and measured after 30 mins by LC-MS/MS analysis; format: ADME, Macaca mulatta, Microsome; settings: rhesus monkey, read-out: Stability

What does the source list for `CCC(=O)c1sc(-c2ccc(Cl)cc2)c(C)c1-c1ccc(S(N)(=O)=O)cc1`?
concentration at 4 h [1]: 0.85 µM; Tmax [2]: 4.8 min; Time (Rattus norvegicus [3]): 24.46 s; fraction unbound at 16 h, 5 µM [4]: 0.0058; Kp at 4 h [5]: 10.7; Kp at 48 h [6]: 9.52; Time (Rattus norvegicus [7]): 14.08 s; fraction unbound at 16 h, 5 µM [8]: 0.0015; Cmax [9]: 3.4 µM; Vd [10]: 4 L/kg; concentration at 8 h [11]: 6.39 µM; Time (Rattus norvegicus [12]): 26.25 s; Cmax [13]: 1.1 µM; concentration at 4 h [14]: 9.22 µM; Drug metabolism [15]: 0.01 nmol/min/mg; Time (Rattus norvegicus [16]): 14.65 s; Activity_index (Rattus norvegicus [17]): 0.3; AUC(0-t) [18]: 282 µM·h; Time (Rattus norvegicus [19]): 13.94 s; Kp at 144 h [20]: 10; half-life [21]: 54 h; Activity_index (Rattus norvegicus [22]): 0.56; remaining at 0.5 h, 1 µM [23]: 93%; Time (Rattus norvegicus [24]): 4.86 s; Cmax [25]: 9.2 µM; Vd [26]: 4 L/kg; clearance [27]: 0.7 mL/min/kg; Time (Rattus norvegicus [28]): 12.8 s; Kp at 1 h [29]: 4.63; fraction unbound at 16 h, 5 µM [30]: 0.0058; Time (Rattus norvegicus [31]): 18.31 s; Time (Rattus norvegicus [32]): 21.46 s; Activity_index (Rattus norvegicus [33]): 0.44; Time (Rattus norvegicus [34]): 20.6 s; Time (Rattus norvegicus [35]): 18.61 s; remaining at 0.5 h, 1 µM [36]: 79%
